Drawing on patent publication US10047084B2, “Imidazolone derivatives, pharmaceutical compositions and uses thereof” (BEIJING FORELANDPHARMA CO. LTD., priority 2013, dated 2018), this text covers IC50, EC50 and solubility for 17 molecules.

The target in series [1] is mTOR kinase (Homo sapiens (Human), UniProt P42345). The series can be described thus: mTOR kinase activity assay (TR-FRET, GFP-4EBP1 substrate). The class given is biochemical. The conditions noted are these: read-out: Enzyme (mTOR) IC50. Here is the method: 1. mTOR Kinase Activity Assay: The inhibition of the mTOR protein kinase activity by the compounds was determined by the enzymatic activity assay in vitro. The detection kit supplied by Invitrogen was used to detect the inhibition of the activity of the mTOR […]. The principle of the assay was as follows: mTOR kinase, fluorescein-labeled substrate and ATP were mixed, and after the reaction, EDTA and terbium-labeled first antibody were added. During the chemical reaction process of the mTOR kinase, the antibody recognized the phosphorylated and fluorescein-labeled substrate, and then the “time-resolved fluorescence resonance energy transfer” (TR-FRET) effect was enhanced. TR-FRET effect was calculated as the ratio of signals from the acceptor fluorescein to signals from the donor terbium. The amount of the antibody bound to the tracer was directly proportional to the amount of the phosphorylated substrate after the reaction. In this way, the kinase activity can be detected. In this assay, the substrate of the mTOR kinase was green fluorescent protein-coupled 4E binding protein 1 (GFP-4EBP1).
1.1 Materials and Instruments:
4-Hydroxyethylpiperazine ethanesulfonic acid (HEPES, Sigma, Cat# SH3375), ethylene glycol-bis-(2-aminoethylether)-tetraacetic acid (EGTA, Sigma, Cat# E3889), manganese chloride (MnCl2, Sigma, Cat# M1787), Tween-20 (Tween-20, Amresco), 1,4-dithiothreitol (DTT, Merck, CB233155),

Series [2] has as its system PC-3. Description: CTG cell survival assay, PC-3. The class given is cell-based. The conditions noted are these: Homo sapiens, PC-3 cells. The essentials:
(§1)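 Cells were exposed to compounds in a 3-fold dilution series, with a top final concentration of 10 uM in 0.1% DMSO. Viable cells were quantified by CellTiter-Glo ATP luminescence.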

In series [3] the test system is MV-4-11. The series can be described thus: CTG cell survival assay, MV-4-11. It is filed as cell-based. The conditions noted are these: Homo sapiens, MV4-11, MV-4-11 cells. The essentials: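 Cells grown in RPMI 1640 with 10% FBS were plated and cultured 24 h at 37 °C, 5% CO2, then treated with compound diluted from 10 mM DMSO stocks. Viable cells were quantified as ATP by CellTiter-Glo luminescence.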

Series [4] concerns SK-BR3/BT474. The series can be described thus: CTG cell survival assay, SK-BR3/BT474. The class given is cell-based. The conditions noted are these: SK-BR3/BT474 cells. The essentials: as §1
A short description of series [5]: Solubility test in common aqueous vehicles. The class given is physicochemical. The conditions noted are these: 25° C., pH = 3.

Sequence of mTOR kinase (P42345 1360-2549): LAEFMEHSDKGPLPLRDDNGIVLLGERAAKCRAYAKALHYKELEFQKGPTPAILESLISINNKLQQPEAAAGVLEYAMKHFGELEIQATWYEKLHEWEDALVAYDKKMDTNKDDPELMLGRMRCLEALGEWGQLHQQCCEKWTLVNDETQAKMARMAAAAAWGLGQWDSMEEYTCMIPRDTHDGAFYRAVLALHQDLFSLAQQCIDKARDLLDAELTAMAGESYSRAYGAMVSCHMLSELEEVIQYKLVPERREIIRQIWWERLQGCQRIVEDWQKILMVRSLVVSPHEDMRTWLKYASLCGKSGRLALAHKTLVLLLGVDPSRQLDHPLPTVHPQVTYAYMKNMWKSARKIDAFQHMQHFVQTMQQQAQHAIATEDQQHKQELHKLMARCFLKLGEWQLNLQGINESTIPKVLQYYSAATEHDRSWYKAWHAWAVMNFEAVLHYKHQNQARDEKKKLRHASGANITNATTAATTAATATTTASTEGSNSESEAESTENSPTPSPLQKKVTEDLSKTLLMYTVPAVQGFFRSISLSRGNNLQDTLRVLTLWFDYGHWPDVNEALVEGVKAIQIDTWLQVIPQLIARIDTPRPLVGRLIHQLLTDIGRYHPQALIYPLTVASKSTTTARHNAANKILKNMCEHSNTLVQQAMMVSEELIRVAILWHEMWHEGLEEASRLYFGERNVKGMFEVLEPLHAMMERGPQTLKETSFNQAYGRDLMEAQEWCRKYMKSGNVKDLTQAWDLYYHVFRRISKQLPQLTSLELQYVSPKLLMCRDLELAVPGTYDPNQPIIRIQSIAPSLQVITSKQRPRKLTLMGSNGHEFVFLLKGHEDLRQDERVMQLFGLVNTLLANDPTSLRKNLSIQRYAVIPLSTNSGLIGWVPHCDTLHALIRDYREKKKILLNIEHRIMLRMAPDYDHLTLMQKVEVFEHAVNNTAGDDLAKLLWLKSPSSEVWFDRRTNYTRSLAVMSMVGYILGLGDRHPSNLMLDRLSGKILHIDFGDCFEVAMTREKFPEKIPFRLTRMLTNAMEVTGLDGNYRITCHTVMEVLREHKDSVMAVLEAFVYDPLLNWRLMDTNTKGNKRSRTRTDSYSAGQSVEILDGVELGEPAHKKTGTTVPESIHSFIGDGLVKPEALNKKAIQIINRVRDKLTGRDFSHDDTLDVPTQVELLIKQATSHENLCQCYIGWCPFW

In general, IC50 refers to the point on the concentration scale where inhibition reaches its midpoint. By EC50 is commonly meant the midpoint of the concentration-response curve. A low value points to higher potency in that assay. For orientation: solubility means the dissolved amount per volume that the medium holds. With `Cn1cc(-c2ccc(-c3ccc4ncc5c(c4c3)n(C3CCCN(C(=O)CO)C3)c(=O)n5C)cn2)cn1` (stereo not shown) [Example 1, 1-(1-(2-hydroxyacetyl)piperidin-3-yl)-3-methyl-8-(6-(1-methyl-1H-pyrazol-4-yl)pyridin-3-yl)-1H-imidazo[4,5-c]quinolin-2(3H)-one], the IC50 in series [1] fell in the range of 10 to 100 nM. Moreover, the EC50 in series [2] was < 200 nM; in series [3] it was < 1000 nM; in series [4], < 500 nM. In addition, in series [5] (aqueous buffer, water), the solubility is > 1000 µg/mL.

Consider `C[C@H](O)C(=O)N1CCCC(n2c(=O)n(C)c3cnc4ccc(-c5ccc(-c6cnn(C)c6)nc5)cc4c32)C1` (stereo partly drawn) [Example 4, 1-(1-((S)-2-hydroxypropionyl)piperidin-3-yl)-3-methyl-8-(6-(1-methyl-1H-pyrazol-4-yl)pyridin-3-yl)-1H-imidazo[4,5-c]quinolin-2(3H)-one], for which, in series [1], the IC50 was in the range of 10 to 100 nM. Moreover, the EC50 in series [2] was < 200 nM; in series [3], < 500 nM; in series [4] it was < 500 nM.

Regarding `C[C@@H](O)C(=O)N1CCCC(n2c(=O)n(C)c3cnc4ccc(-c5ccc(-c6cnn(C)c6)nc5)cc4c32)C1` (stereo partly drawn) [Example 5, 1-(1-((R)-2-hydroxypropionyl)piperidin-3-yl)-3-methyl-8-(6-(1-methyl-1H-pyrazol-4-yl)pyridin-3-yl)-1H-imidazo[4,5-c]quinolin-2(3H)-one], in series [1], the IC50 is < 10 nM. The EC50 in series [2] is < 500 nM; in series [3], < 500 nM; in series [4], < 200 nM.

For the molecule `Cn1cc(-c2ccc(-c3ccc4ncc5c(c4c3)n(C3CCN(S(C)(=O)=O)C3)c(=O)n5C)cn2)cn1` (stereo not shown) [Example 6, 3-methyl-8-(6-(1-methyl-1H-pyrazol-4-yl)pyridin-3-yl)-1-(1-(methanesulfonyl)pyrrolidin-3-yl)-1H-imidazo[4,5-c]quinolin-2 (3H)-one], in series [1], the IC50 is < 10 nM. Further, the 50% effective concentration (EC50) in series [2] was < 50 nM; in series [3] it was < 200 nM; in series [4], < 50 nM.

`CCN1CCC(n2c(=O)n(C)c3cnc4ccc(-c5ccc(-c6cnn(C)c6)nc5)cc4c32)C1` (stereo not shown) [Example 10, 1-(1-ethylpyrrolidin-3-yl)-3-methyl-8-(6-(1-methyl-1H-pyrazol-4-yl)pyridin-3-yl)-1H-imidazo[4,5-c]quinolin-2(3H)-one]: in series [1], the IC50 fell in the range of 100 to 1000 nM. The EC50 was < 200 nM in series [2], < 1000 nM in series [3] and < 1000 nM in series [4].

Take `Cn1cc(-c2ccc(-c3ccc4ncc5c(c4c3)n([C@H]3CC[C@H](O)CC3)c(=O)n5C)cn2)cn1` [Example 17, 1-((1r,4r)-4-hydroxycyclohexyl)-3-methyl-8-(6-(1-methyl-1H-pyrazol-4-yl)pyridin-3-yl)-1H-imidazo[4,5-c]quinolin-2(3H)-one]: the IC50 in series [1] was < 10 nM. Moreover, the EC50 in series [2] is < 100 nM; in series [3] it was < 500 nM; in series [4] it was < 200 nM.

For the molecule `Cn1c(=O)n([C@H]2CC[C@@H](O)CC2)c2c3cc(-c4ccc(-c5ccccc5)nc4)ccc3ncc21` [Example 19, 1-((1s,4s)-4-hydroxycyclohexyl)-3-methyl-8-(6-phenylpyridin-3-yl)-1H-imidazo[4,5-c]quinolin-2(3H)-one], the IC50 in series [1] is < 10 nM. The figures for the EC50 in series [2], in series [3] and in series [4] were < 50 nM, < 200 nM and < 100 nM, respectively. In addition, the solubility in series [5] (aqueous with cosolvent or surfactant or cyclodextrin, 30% hydroxypropyl-β-cyclodextrin) is > 1000 µg/mL.

For `COc1ncc(-c2ccc3ncc4c(c3c2)n([C@H]2CC[C@@H](O)CC2)c(=O)n4C)cc1C` [Example 20, 1-((1s,4s)-4-hydroxycyclohexyl)-8-(6-methoxyl-5-methylpyridin-3-yl)-3-methyl-1H-imidazo[4,5-c]quinolin-2(3H)-one], the IC50 in series [1] is 10 to 100 nM. In addition, the EC50 is < 200 nM in series [2], < 200 nM in series [3] and < 500 nM in series [4].

On to `Cn1c(=O)n([C@H]2CC[C@@H](O)CC2)c2c3cc(-c4cnn(-c5ccccc5)c4)ccc3ncc21` [Example 21, 1-((1s,4s)-4-hydroxycyclohexyl)-3-methyl-8-(1-phenyl-1H-pyrazol-4-yl)-1H-imidazo[4,5-c]quinolin-2(3H)-one], for which the IC50 in series [1] fell in the range of 10 to 100 nM. Further, the EC50 is < 500 nM in series [2], < 200 nM in series [3] and < 500 nM in series [4].

In the case of `Cc1ccc(-c2ccc3ncc4c(c3c2)n([C@H]2CC[C@@H](O)CC2)c(=O)n4C)cn1` [Example 22, 1-((1s,4s)-4-hydroxycyclohexyl)-3-methyl-8-(6-methylpyridin-3-yl)-1H-imidazo[4,5-c]quinolin-2(3H)-one], in series [1], the IC50 lay within 10 to 100 nM. The EC50 in series [2], in series [3] and in series [4] was < 200 nM each time.

For `Cn1c(=O)n([C@H]2CC[C@H](O)CC2)c2c3cc(-c4cnn(-c5ccccc5)c4)ccc3ncc21` [Example 23, 1-((1r,4r)-4-hydroxycyclohexyl)-3-methyl-8-(1-phenyl-1H-pyrazol-4-yl)-1H-imidazo[4,5-c]quinolin-2(3H)-one], the IC50 in series [1] lay in the range of 10 to 100 nM. Also, the EC50 in series [2] is < 200 nM; in series [3], < 500 nM; in series [4] it was < 500 nM.

With `COc1ncc(-c2ccc3ncc4c(c3c2)n([C@H]2CC[C@H](O)CC2)c(=O)n4C)cc1C` [Example 24, 1-((1r,4r)-4-hydroxycyclohexyl)-8-(6-methoxyl-5-methylpyridin-3-yl)-3-methyl-1H-imidazo[4,5-c]quinolin-2(3H)-one], the IC50 in series [1] lay in the range of 10 to 100 nM. For the same molecule, the EC50 in series [2] is < 200 nM; in series [3], < 500 nM; in series [4] it was < 500 nM.

As to `Cn1c(=O)n([C@H]2CCN(S(C)(=O)=O)C2)c2c3cc(-c4ccc(-c5ccccc5)nc4)ccc3ncc21` [Example 30, (S)-3-methyl-1-(1-(methanesulfonyl)pyrrolidin-3-yl)-8-(6-phenylpyridin-3-yl)-1H-imidazo[4,5-c]quinolin-2(3H)-one], the IC50 in series [1] was < 10 nM. For the same molecule, the EC50 in series [3] and in series [4] was < 100 nM each time.

With `Cn1cc(-c2ccc(-c3ccc4ncc5c(c4c3)n(C3CCCC(O)C3)c(=O)n5C)cn2)cn1` (stereo not shown) [Example 32, 1-(3-hydroxycyclohexyl)-3-methyl-8-(6-(1-methyl-1H-pyrazol-4-yl)pyridin-3-yl)-1H-imidazo[4,5-c]quinolin-2(3H)-one], the IC50 in series [1] was < 10 nM. Moreover, the EC50 in series [2] was < 50 nM; in series [3], < 200 nM; in series [4] it was < 100 nM.

Consider `[2H]C([2H])([2H])n1c(=O)n(C2CCCN(S(C)(=O)=O)C2)c2c3cc(-c4ccc(-c5cnn(C)c5)nc4)ccc3ncc21` (stereo not shown) [Example 36, 3-deuteromethyl-8-(6-(1-methyl-1H-pyrazol-4-yl)pyridin-3-yl)-1-(1-(methanesulfonyl)piperidin-3-yl)-1H-imidazo[4,5-c]quinolin-2(3H)-one], for which the IC50 in series [1] was < 10 nM. For the same molecule, the results for the EC50 in series [3] and in series [4] were < 200 nM and < 500 nM, respectively.

Turning to `Cn1cc(-c2ccc(-c3ccc4ncc5c(c4n3)n(C3CCCN(S(C)(=O)=O)C3)c(=O)n5C)cn2)cn1` (stereo not shown) [Example 37, 3-methyl-8-(6-(1-methyl-1H-pyrazol-4-yl)pyridin-3-yl)-1-(1-(methanesulfonyl)piperidin-3-yl)-1H-imidazo[4,5-c][1,5]naphthyridin-2(3H)-one], the IC50 in series [1] was < 10 nM. Further, the EC50 in series [3] and in series [4] was < 50 nM each time.

In the case of `CCS(=O)(=O)N1CCC[C@@H](n2c(=O)n(C)c3cnc4ccc(-c5ccc(-c6cnn(C)c6)nc5)cc4c32)C1` [Example 52, (R)-1-(1-(ethylsulfonyl)piperidin-3-yl)-3-methyl-8-(6-(1-methyl-1H-pyrazol-4-yl)pyridin-3-yl)-1H-imidazo[4,5-c]quinolin-2(3H)-one], the EC50 was < 30 nM in series [2], < 30 nM in series [3] and 50 nM in series [4]. Moreover, the solubility in series [5] (aqueous buffer, water) is > 1000 µg/mL.
